In ChEMBL document CHEMBL5360618, “PepScaf: Harnessing Machine Learning with In Vitro Selection toward De Novo Macrocyclic Peptides against IL-17C/IL-17RE Interaction” (J Med Chem, 2023):
Positions of bridges follow the written chain, without caps; N, C: chain ends. Non-standard residues stand in square brackets, D forms with d. Residues, ends and D or L forms follow the SMILES beside them. Ala(imidazol-2-yl) = N[C@@H](Cc1ncc[nH]1)C(=O)O

target: T1, IL17-RE-IL-17C (Homo sapiens, UniProt Q8NFR9+Q9P0M4); assay: Inhibition of IL-17C/IL-17RE interaction (unknown origin) incubated for 1.5 hrs by ELISA method; type: protein-complex assay
T1 sequence (Q9P0M4 whole entry): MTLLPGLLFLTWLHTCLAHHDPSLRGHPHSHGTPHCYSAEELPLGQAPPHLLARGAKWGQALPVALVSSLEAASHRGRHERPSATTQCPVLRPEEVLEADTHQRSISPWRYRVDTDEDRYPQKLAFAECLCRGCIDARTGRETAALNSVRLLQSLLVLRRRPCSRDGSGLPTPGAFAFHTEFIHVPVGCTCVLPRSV
T1 sequence (Q8NFR9 whole entry): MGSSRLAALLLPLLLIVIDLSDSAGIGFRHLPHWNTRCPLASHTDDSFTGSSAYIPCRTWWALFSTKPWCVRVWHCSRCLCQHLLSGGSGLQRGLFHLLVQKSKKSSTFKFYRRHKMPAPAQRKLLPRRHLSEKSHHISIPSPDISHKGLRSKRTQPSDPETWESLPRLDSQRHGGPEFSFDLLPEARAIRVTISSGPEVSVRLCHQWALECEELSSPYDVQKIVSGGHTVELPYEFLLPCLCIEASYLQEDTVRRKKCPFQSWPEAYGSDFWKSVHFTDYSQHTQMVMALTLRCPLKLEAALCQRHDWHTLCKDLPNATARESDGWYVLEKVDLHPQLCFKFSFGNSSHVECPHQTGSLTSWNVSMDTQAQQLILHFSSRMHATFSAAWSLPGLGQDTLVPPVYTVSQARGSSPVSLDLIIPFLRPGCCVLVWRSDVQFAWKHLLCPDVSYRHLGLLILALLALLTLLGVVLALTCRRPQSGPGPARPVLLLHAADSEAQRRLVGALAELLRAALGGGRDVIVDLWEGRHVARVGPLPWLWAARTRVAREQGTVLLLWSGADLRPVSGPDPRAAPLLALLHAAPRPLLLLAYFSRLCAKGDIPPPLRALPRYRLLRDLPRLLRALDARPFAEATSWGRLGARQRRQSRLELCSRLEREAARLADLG

| SMILES | IC50 |
| --- | --- |
| CC(C)C[C@@H]1NC(=O)[C@H](CC(N)=O)NC(=O)CNC(=O)[C@H](Cc2ccc(O)cc2)NC(=O)[C@H](CC(C)C)NC(=O)[C@H](CO)NC(=O)[C@H](C(C)C)NC(=O)[C@H](Cc2ccc(O)cc2)NC(=O)[C@H](Cc2ccc(O)cc2)NC(=O)[C@H](CCC(N)=O)NC(=O)[C@H](Cc2c[nH]cn2)NC(=O)[C@H](Cc2ccc(O)cc2)NC(=O)CSC[C@@H](C(=O)NCC(N)=O)NC(=O)CNC1=O ({CH2CO}-YHQYYVSLYGNLGCG-NH2; thioether N-14) | 0.0104 µM |
| CC[C@H](C)[C@@H]1NC(=O)[C@H](CO)NC(=O)[C@H](Cc2ccc(O)cc2)NC(=O)[C@H](Cc2ccc(O)cc2)NC(=O)[C@H]([C@@H](C)CC)NC(=O)[C@H](Cc2c[nH]cn2)NC(=O)[C@H](CC(N)=O)NC(=O)[C@H](Cc2ccccc2)NC(=O)[C@H](Cc2ccccc2)NC(=O)[C@H](CCC(N)=O)NC(=O)[C@H](CC(=O)O)NC(=O)[C@H]([C@@H](C)CC)NC(=O)[C@H](Cc2ccc(O)cc2)NC(=O)CSC[C@@H](C(=O)NCC(N)=O)NC1=O ({CH2CO}-YIDQFFNHIYYSICG-NH2; thioether N-14) | 14.7 µM |
| CC[C@H](C)[C@@H]1NC(=O)[C@H](CO)NC(=O)[C@H](Cc2ccc(O)cc2)NC(=O)[C@H]([C@@H](C)CC)NC(=O)[C@H]([C@@H](C)O)NC(=O)[C@H](CC(C)C)NC(=O)[C@H](CC(=O)O)NC(=O)[C@H]([C@@H](C)CC)NC(=O)[C@H](C(C)C)NC(=O)[C@H](Cc2ccc(O)cc2)NC(=O)[C@H](CC(=O)O)NC(=O)[C@H](CCCCN)NC(=O)[C@H](Cc2ccc(O)cc2)NC(=O)CSC[C@@H](C(=O)NCC(N)=O)NC1=O ({CH2CO}-YKDYVIDLTIYSICG-NH2; thioether N-14) | > 30 µM |
| CC(C)C[C@@H]1NC(=O)[C@H](CC(C)C)NC(=O)[C@H](CO)NC(=O)[C@H](CCC(=O)O)NC(=O)[C@H](CC(C)C)NC(=O)[C@H](Cc2ccc(O)cc2)NC(=O)CSC[C@@H](C(=O)NCC(N)=O)NC(=O)[C@H](Cc2ccc(O)cc2)NC(=O)[C@H](Cc2ccc(O)cc2)NC(=O)[C@H](CC(N)=O)NC(=O)[C@H](CC(N)=O)NC(=O)[C@H](CO)NC(=O)CNC1=O ({CH2CO}-YLESLLGSNNYYCG-NH2; thioether N-13) | > 30 µM |
| CC[C@H](C)[C@@H]1NC(=O)[C@H](CCCNC(=N)N)NC(=O)[C@H](Cc2ccc(O)cc2)NC(=O)[C@H](Cc2ccc(O)cc2)NC(=O)[C@H](Cc2c[nH]cn2)NC(=O)[C@H](CCC(N)=O)NC(=O)[C@H](Cc2ccc(O)cc2)NC(=O)CSC[C@@H](C(=O)NCC(N)=O)NC(=O)CNC(=O)[C@H](CC(C)C)NC(=O)[C@H](CCC(=O)O)NC(=O)CNC(=O)[C@H](Cc2ccc(O)cc2)NC(=O)[C@H](CC(C)C)NC1=O ({CH2CO}-YQHYYRILYGELGCG-NH2; thioether N-14) | > 30 µM |
| CC[C@H](C)[C@@H]1NC(=O)[C@H](CCCNC(=N)N)NC(=O)[C@H](Cc2ccc(O)cc2)NC(=O)[C@H](Cc2ccc(O)cc2)NC(=O)[C@H](Cc2c[nH]cn2)NC(=O)[C@H](CCCNC(=N)N)NC(=O)[C@H](Cc2ccc(O)cc2)NC(=O)CSC[C@@H](C(=O)NCC(N)=O)NC(=O)CNC(=O)[C@H](CC(C)C)NC(=O)[C@H](CCC(=O)O)NC(=O)CNC(=O)[C@H](Cc2ccc(O)cc2)NC(=O)[C@H](CC(C)C)NC1=O ({CH2CO}-YRHYYRILYGELGCG-NH2; thioether N-14) | > 30 µM |
| CC[C@H](C)[C@@H]1NC(=O)[C@@H]2CCCN2C(=O)[C@H](CCCNC(=N)N)NC(=O)[C@H](Cc2c[nH]c3ccccc23)NC(=O)[C@H](Cc2ccccc2)NC(=O)[C@H](CC(N)=O)NC(=O)[C@@H]2CCCN2C(=O)[C@H](Cc2ccccc2)NC(=O)[C@H](Cc2c[nH]c3ccccc23)NC(=O)[C@H](Cc2ccc(O)cc2)NC(=O)CSC[C@@H](C(=O)NCC(N)=O)NC(=O)[C@H](CC(N)=O)NC1=O ({CH2CO}-YWFPNFWRPINCG-NH2; thioether N-12) | > 30 µM |
| CC[C@H](C)[C@@H]1NC(=O)[C@H](Cc2c[nH]c3ccccc23)NC(=O)[C@H](CC(N)=O)NC(=O)[C@H](Cc2ccc(O)cc2)NC(=O)[C@H](Cc2ccc(O)cc2)NC(=O)CSC[C@@H](C(=O)NCC(N)=O)NC(=O)[C@H](CO)NC(=O)[C@H]([C@@H](C)O)NC(=O)[C@H](CC(N)=O)NC(=O)[C@H](Cc2ccc(O)cc2)NC(=O)[C@H](Cc2ccc(O)cc2)NC(=O)[C@H](Cc2ccccc2)NC(=O)[C@H](Cc2c[nH]cn2)NC(=O)[C@H](CC(=O)O)NC1=O ({CH2CO}-YYNWIDHFYYNTSCG-NH2; thioether N-14) | > 30 µM |
| CC(C)C[C@@H]1NC(=O)[C@H](C)NC(=O)[C@H](Cc2ccc(O)cc2)NC(=O)[C@H](Cc2ccc(O)cc2)NC(=O)[C@H](Cc2ccc(O)cc2)NC(=O)[C@H](CC(C)C)NC(=O)[C@H](Cc2ncc[nH]2)NC(=O)[C@H](Cc2ccc(O)cc2)NC(=O)CSC[C@@H](C(=O)NCC(N)=O)NC(=O)CNC(=O)[C@H](CC(C)C)NC(=O)[C@H](CC(N)=O)NC(=O)CNC(=O)[C@H](Cc2ccc(O)cc2)NC1=O ({CH2CO}-Y[Ala(imidazol-2-yl)]LYYYALYGNLGCG-NH2; thioether N-14) | 0.0118 µM |

Molecules with a lower IC50, results first:

| IC50 | SMILES |
| --- | --- |
| 0.0081 µM | CC(C)C[C@@H]1NC(=O)[C@H](CO)NC(=O)CNC(=O)[C@H](Cc2ccc(O)cc2)NC(=O)[C@H](CC(C)C)NC(=O)[C@H](CO)NC(=O)[C@H](C(C)C)NC(=O)[C@H](Cc2ccc(O)cc2)NC(=O)[C@H](Cc2ccc(O)cc2)NC(=O)[C@H](CCC(N)=O)NC(=O)[C@H](Cc2c[nH]cn2)NC(=O)[C@H](Cc2ccc(O)cc2)NC(=O)CSC[C@@H](C(=O)NCC(N)=O)NC(=O)CNC1=O ({CH2CO}-YHQYYVSLYGSLGCG-NH2; thioether N-14) |
| 0.0079 µM | CC(C)C[C@@H]1NC(=O)[C@H](CO)NC(=O)CNC(=O)[C@H](Cc2ccc(O)cc2)NC(=O)[C@H](CC(C)C)NC(=O)[C@H](CO)NC(=O)[C@H](CCC(N)=O)NC(=O)[C@H](Cc2ccc(O)cc2)NC(=O)[C@H](Cc2ccc(O)cc2)NC(=O)[C@H](C(C)C)NC(=O)[C@H](Cc2c[nH]cn2)NC(=O)[C@H](Cc2ccc(O)cc2)NC(=O)CSC[C@@H](C(=O)NCC(N)=O)NC(=O)CNC1=O ({CH2CO}-YHVYYQSLYGSLGCG-NH2; thioether N-14) |
| 0.0054 µM | CC(C)C[C@@H]1NC(=O)[C@H](CO)NC(=O)CNC(=O)[C@H](Cc2ccc(O)cc2)NC(=O)[C@H](CC(C)C)NC(=O)[C@H](CO)NC(=O)[C@H](CCCNC(=N)N)NC(=O)[C@H](Cc2ccc(O)cc2)NC(=O)[C@H](Cc2ccc(O)cc2)NC(=O)[C@H](C(C)C)NC(=O)[C@H](Cc2cnc[nH]2)NC(=O)[C@H](Cc2ccc(O)cc2)NC(=O)CSC[C@@H](C(=O)NCC(N)=O)NC(=O)CNC1=O ({CH2CO}-YHVYYRSLYGSLGCG-NH2; thioether N-14) |
| 0.009 µM | CC(C)C[C@@H]1NC(=O)[C@H](CO)NC(=O)[C@H](Cc2ccc(O)cc2)NC(=O)[C@H](Cc2ccc(O)cc2)NC(=O)[C@H](Cc2ccc(O)cc2)NC(=O)[C@H](C(C)C)NC(=O)[C@H](Cc2c[nH]cn2)NC(=O)[C@H](Cc2ccc(O)cc2)NC(=O)CSC[C@@H](C(=O)NCC(N)=O)NC(=O)CNC(=O)[C@H](CC(C)C)NC(=O)[C@@H]2CCCN2C(=O)CNC(=O)[C@H](Cc2ccc(O)cc2)NC1=O ({CH2CO}-YHVYYYSLYGPLGCG-NH2; thioether N-14) |
| 0.0033 µM | CC(C)C[C@@H]1NC(=O)[C@H](CO)NC(=O)CNC(=O)[C@H](Cc2ccc(O)cc2)NC(=O)[C@H](CC(C)C)NC(=O)[C@H](CO)NC(=O)[C@H](Cc2ccc(O)cc2)NC(=O)[C@H](Cc2ccc(O)cc2)NC(=O)[C@H](Cc2ccc(O)cc2)NC(=O)[C@H](C(C)C)NC(=O)[C@H](Cc2c[nH]cn2)NC(=O)[C@H](Cc2ccc(O)cc2)NC(=O)CSC[C@@H](C(=O)NCC(N)=O)NC(=O)CNC1=O ({CH2CO}-YHVYYYSLYGSLGCG-NH2; thioether N-14) |
